“Also recorded” adds a separate entry of the source.
Experiments:
PKC [1] = test: PKC affinity of bryostatin 1 and bryologs; type: binding; details: times more potent than bryostatin-1
Source text: Analogs of bryostatin, commonly referred to as bryologs, are one particular class of PKC activators that are suitable for use in the methods of the present invention. […] Structurally, they are all similar. While bryostatin-1 has two pyran rings and one 6-membered cyclic acetal, in most bryologs one of the pyrans of bryostatin-1 is replaced with a second 6-membered acetal ring. This modification […] the stability of bryologs, relative to bryostatin-1, for example, in both strong acid or base, but has little significance at physiological pH. Bryologs also have a lower molecular weight (ranging from about 600 to 755), as compared to bryostatin-1 (988), a property which facilitates transport across the blood-brain barrier.

PKC [2] = details: cited from earlier work
[3] = tested on: sAPPα secretion, AD cell line AG06848; test: sAPPα secretion immunoblot, AD fibroblasts; type: cell-based, human; details: for secretion of sAPPα: AD cell line AG06848, three hours of treatment, relative to DMSO
Description: (§1) Cultured skin fibroblasts were obtained from the Coriell Cell Repositories and grown using the general guidelines established for their culture with slight modifications (Cristofalo & Carpentier, 1988; Hirashima et al., 1996). The culture medium in which cells were grown was Dulbecco's modified Eagle's medium (GIBCO) supplemented with 10% fetal calf serum (Biofluids, Inc.). Fibroblasts from control cell lines (AC), cases AG07141 and AG06241, and a familial AD (FAD) case (AG06848) were utilized.
Cells grown to confluence in 6 cm Petri dishes for 5-7 days. On the day of the experiment, medium was replaced with DMEM without serum and left undisturbed for 2 h. Upon completion of the 2 hour serum deprivation; treatment was achieved by direct application to the medium of Bryo, BL and DMSO at the appropriate concentrations. (0.1 and 0.01 nM for bryostatin; 0.1 nM, 0.1 μM, and 1 μM BL). DMSO was less than 1% in all cases. In most cases, medium was collected and processed after 3 hours of treatment for sAPP secretion. Other time points were also used to establish a time course of secretion.
sAPP—Determinations/Measurements of sAPPα
The concentration of secreted APP was measured using conventional immunoblotting techniques, with minor modifications the protocol. Precipitated protein extracts from each dish/treatment were loaded to freshly prepared 10% acrylamide Tris-HCl minigels and separated by SDPAGE. The volume of sample loaded was corrected for total cell protein per dish. Proteins were then electrophoretically transferred to PVDF membranes. Membranes were saturated with 5% non-fat dry milk to block non-specific binding. Blocked membranes were incubated overnight at 4° C. with the commercially available antibody 6E10 (1:500), which recognizes sAPP-alpha in the conditioned medium (SENETEK). After washing, the membranes were incubated at room temperature with horseradish peroxidase conjugated anti-mouse IgG secondary antibody (Jackson's Laboratories). The signal was then detected using enhanced chemiluminescence followed by exposure of Hyperfilm ECL (Amersham). The band intensities were quantified by densitometry using a BioRad GS-800 calibrated scanning densitometer and Multianalyst software (BioRad).

[4] = tested on: sAPPα secretion, control cell lines AG07141 and AG06241; test: sAPPα secretion immunoblot, control fibroblasts; type: cell-based, human; details: two control cell lines pooled, 0.1 nM, compared to DMSO alone
Description: as §1
Cells grown to confluence in 6 cm Petri dishes for 5-7 days. On the day of the experiment, medium was replaced with DMEM without serum and left undisturbed for 2 h. Upon completion of the 2 hour serum deprivation; treatment was achieved by direct application to the medium of Bryo, BL and DMSO at the appropriate concentrations. (0.1 and 0.01 nM for bryostatin; 0.1 nM, 0.1 μM, and 1 μM BL). DMSO was less than 1% in all cases. […]
The concentration of secreted APP was measured using conventional immunoblotting techniques, with minor modifications the protocol. […] The signal was then detected using enhanced chemiluminescence followed by exposure of Hyperfilm ECL (Amersham). The band intensities were quantified by densitometry using a BioRad GS-800 calibrated scanning densitometer and Multianalyst software (BioRad).

PKC-α = molecular target: T1, PKC-α (Homo sapiens, UniProt P17252); test: Immunoblot assay for PKC translocation, α isoenzyme; type: cell-based
T1 construct: endogenous in cells; host or cells: human fibroblasts (AD patient and control lines)
Description: Immunoblot experiments were conducted using well-established procedures (Dunbar, 1994). Cells were grown to confluency (˜90%) in 6 cm Petri dishes. […] Fibroblasts were washed twice with ice-cold PBS, scraped in PBS, and collected by low-speed centrifugation. The pellets were re-suspended in the following homogenization buffer: 20 mM Tris-HCl, pH 7.5, 2 mM EDTA, 2 mM EGTA, 5 mM DTT, 0.32 M sucrose, and protease inhibitor cocktail (Sigma). […] The pellets were homogenized in the same buffer containing 1.0% Triton X-100, incubated in ice for 45 minutes, and centrifuged at ˜12,000 g for 20 minutes. The supernatant from this batch was used as the membranous fraction. After protein determination, 20 μg of protein were diluted in 2× electrophoresis sample buffer (Novex), boiled for 5 minutes, run on 10% acrylamide gel, and transferred electrophoretically to a PVDF membrane. The membrane was saturated with 5% milk blocker by incubating it at room temperature for an hour. The primary antibody for PKC isoform (Transduction Laboratories) was diluted (1:1000) in blocking solution and incubated with the membrane overnight at 4° C. […] The band intensities were quantified by densitometry using a BioRad GS-800 calibrated scanning densitometer and Multianalyst software (BioRad).

Wistar albino rats = test: Morris Water Maze; type: in vivo; details: for learning, escape latency from trial to trial: i.c.v. 1 μl/site of 2 μM, vs vehicle control
Source text: (See, for example, Hollister, L. E., 1990, Pharmacopsychiat., 23, (Suppl II) 33-36). The available animal models of memory loss and impaired learning involve measuring the ability of animals to remember a discrete event. These tests include the Morris Water Maze and the passive avoidance procedure. In the Morris Water Maze, animals are allowed to swim in a tank divided into four quadrants, only one of which has a safety platform beneath the water. The platform is removed and the animals are tested for how long they search the correct quadrant verse the incorrect quadrants. In the passive avoidance procedure the animal remembers the distinctive environment in which a mild electric shock is delivered and avoids it on a second occasion. A variant of the passive avoidance procedure makes use of a rodent's preference for dark enclosed environments over light open ones. Further discussion can be found in Crawley, J. N., 1981, Pharmacol. Biochem. Behav., 15, 695-699; Costall, B. et al., 1987, Neuropharmacol., 26, 195-200; Costall, B. et at, 1989, Pharmacol. Biochem. Behav., 32, 777-785; Barnes, J. M. et al., 1989, Br. J. Pharmacol., 98 (Suppl) 693P; Barnes, J. M. et al., 1990, Pharmacol. Biochem. Behav., 35, 955-962.
Wistar albino rats (n=20) weighing between 220-250 g were housed for one week with free access to food and water. Stainless steel cannulas were placed bilaterally in each rat, following previously described procedures (49). […] Subsequently, animals were assigned randomly to experimental and control groups. At least 24 h prior to treatment and training, all animals were pre-exposed to the MWM experimental situation by placing them in the water and allowed to swim for 120 s. The training followed standard procedures (49) and consisted of two trials per day for 4 consecutive days. […] The control group received the same volume of vehicle alone, on identical schedule. On the fifth day, the platform was removed and the retention test was conducted. Animals' movements and escape latencies were recorded with an automatic tracking system. […] Acquisition of memory was measured as time spent in the relevant quadrant (5th day). […] Bryostatin-1 is capable of being used at concentrations to improve cognition that are 300 to 300,000 times lower than the concentration used to treat tumors.

[5] = tested on: double transgenic mice carrying the V7171 mutation and a Presenilin-1 (PS1) mutation; test: Double transgenic mice (V7171 and Presenilin-1 mutation) treated with Bryostatin-1; type: in vivo; details: 40 μg/k.g. i.p. three times a week
Description: A second transgenic study using similar procedures/testing and protocol was performed using double transgenic mice carrying the V7171 mutation and a Presenilin-1 (PS1) mutation, which causes accelerated amyloid formation, with the following major differences. Approximately 40 mice including both treated and controls were utilized. Treatment began at approximately 3 weeks of age and consisted of treatments with 40 μg/k.g. i.p. three times a week using Bryostatin-1. Controls were given vehicle alone. The treatment continued for approximately seven months before the morbidity rate of the non-treated animals necessitated termination of the experiment (see FIG. 10).

[6] = humans; cited from earlier work
[7] = approximately seven months, vs vehicle

CCCCCCCC(=O)O[C@H]1/C(=C/C(=O)OC)C[C@H]2C[C@H](CO)OC(=O)C[C@H](O)C[C@@H]3CCC[C@H](C[C@@H]4CCO[C@H](/C=C/C(C)(C)[C@]1(O)O2)O4)O3 [Analog 1]
potency relative to bryostatin-1 (PKC [1]): about 100 times
affinity for PKC, in words (PKC [2]): highest affinity
Ki (PKC [2]; read-out: PKC Affin): 0.25 nM

CCC/C=C/C=C/C(=O)O[C@H]1/C(=C/C(=O)OC)C[C@H]2C[C@H]([C@@H](C)O)OC(=O)C[C@H](O)C[C@@H]3C[C@H](OC(C)=O)C(C)(C)[C@](O)(C[C@@H]4C/C(=C/C(=O)OC)C[C@H](/C=C/C(C)(C)[C@]1(O)O2)O4)O3 [Bryostatin 1]
sAPPα secretion, time-course ([3]; 0.01 nM compared with 0.1 nM, 2 and 3 h of incubation): undistinguishable from the higher
sAPPα secretion, time-course ([3]; 0.01 nM, only after 60 min of incubation): robust enhancement
sAPPα secretion, time-course ([3]; 0.1 nM, 2 and 3 h compared with 60 min): did not substantially differ from 60 min incubation
sAPPα secretion, time-course ([3]; 0.1 nM, 30 and 60 min): Progressive and proportional increases
sAPPα secretion, time-course ([3]; 0.1 nM, 15 min incubation): marked increase
secretion of sAPPα ([3]; 0.1 nM, listed as Bryostatin): dramatically enhanced
secretion of sAPPα ([3]; 0.1 nM, listed as bryostatin): dramatic increase
secretion of sAPPα ([4]; listed as Bryostatin): effective in enhancing secretion
secretion of sAPPα ([4]; listed as bryostatin): enhanced the secretion of sAPPα
time of maximal PKC translocation (measure of activation) (PKC-α): 30 min
time to improved cognition over control rats (Wistar albino rats; i.c.v.): ≤ 2 days
learning, escape latency from trial to trial (Wistar albino rats; listed as bryostatin): significantly faster
learning, escape latency from trial to trial (Wistar albino rats; listed as bryostatin 1): significantly lower
memory or retention, time spent in the relevant quadrant (Wistar albino rats; i.c.v., 5th day, platform removed, vs controls): significantly enhanced
percent plaque load, Thioflavin S staining ([5]; approximately seven months, vs controls): decrease in percent plaque load
behavioural differences, water testing [5, 7]: not significant
total APP [5, 7]: overall lower amount; also recorded: noticeable change
life span, life percentage over time ([5]; vs controls, listed as Bryostatin): increase in life span
life span, life percentage over time ([5]; vs controls, listed as Bryostatin-1): greater life percentage over time
main adverse reaction [6]: myalgia
maximum dose, limited by myalgia [6]: 40 mg/m2
